Results published in ChEMBL document CHEMBL4396930, “Identification of new dual FABP4/5 inhibitors based on a naphthalene-1-sulfonamide FABP4 inhibitor” (Bioorg Med Chem, 2019).

Tests used:
[1] = biological target: Fatty acid-binding protein 5 (Homo sapiens, UniProt Q01469); assay: Displacement of 1,8-ANS from human recombinant full length N-terminal his-tagged FABP5 expressed in Escherichia coli BL21 (DE3) incubated for 3 mins by fluorescence based assay
[2] = biological target: Fatty acid-binding protein, adipocyte (Homo sapiens, UniProt P15090); assay: Displacement of 1,8-ANS from human recombinant full length N-terminal his-tagged FABP4 expressed in Escherichia coli BL21 (DE3) incubated for 3 mins by fluorescence based assay
RAW264.7 [3] = assay: Cytotoxicity against mouse RAW264.7 cells assessed as reduction in cell viability at 30 to 60 uM incubated for 24 hrs by MTT assay; format: cell-based; details: raw264.7, 24 h
3T3-L1 = assay: Cytotoxicity against mouse 3T3L1 cells assessed as reduction in cell viability at 30 to 60 uM incubated for 24 hrs by MTT assay; format: cell-based; details: 3t3-l1, 24 h
RAW264.7 [4] = assay: Antiinflammatory activity against mouse RAW264.7 cells assessed as inhibition of LPS-induced TNFalpha gene expression level at 30 uM preincubated for 12 hrs followed by LPS addition and measured after 6 hrs by qRT PCR analysis relative to control; format: functional
[5] = biological target: Fatty acid-binding protein, heart (Homo sapiens, UniProt P05413); assay: Displacement of 1,8-ANS from FABP3 (unknown origin) incubated for 3 mins by fluorescence based assay
RAW264.7 [6] = assay: Antiinflammatory activity against mouse RAW264.7 cells assessed as inhibition of LPS-induced MCP-1 gene expression level at 30 uM preincubated for 12 hrs followed by LPS addition and measured after 6 hrs by qRT PCR analysis relative to control; format: functional

Chain of Fatty acid-binding protein, adipocyte (P15090 whole entry): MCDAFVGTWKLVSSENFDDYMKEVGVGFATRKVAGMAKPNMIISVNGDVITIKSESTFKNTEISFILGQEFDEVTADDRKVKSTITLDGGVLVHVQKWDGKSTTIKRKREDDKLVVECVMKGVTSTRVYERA
Chain of Fatty acid-binding protein 5 (Q01469 whole entry): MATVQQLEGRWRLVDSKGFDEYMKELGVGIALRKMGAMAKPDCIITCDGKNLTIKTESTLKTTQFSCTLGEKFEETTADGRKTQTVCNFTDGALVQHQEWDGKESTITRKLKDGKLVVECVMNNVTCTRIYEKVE
Chain of Fatty acid-binding protein, heart (P05413 whole entry): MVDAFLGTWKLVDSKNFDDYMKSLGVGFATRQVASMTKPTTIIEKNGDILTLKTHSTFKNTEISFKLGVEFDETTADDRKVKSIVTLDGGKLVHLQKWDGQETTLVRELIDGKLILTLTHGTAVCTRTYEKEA

| Compound | IC50 [1] [µM] | IC50 [2] [µM] | further results |
| --- | --- | --- | --- |
| Cc1c(Cl)cccc1OCc1cc(=O)n2nc(-c3ccccc3)nc2[nH]1 |  |  | Activity (RAW264.7 [3]): Toxic; Activity (3T3-L1): Toxic |
| CCCCCCCCCCCCOc1ccc(S(=O)(=O)Nc2ccc(F)c(C(=O)O)c2)c2ccccc12 |  | 24.8 |  |
| O=C(O)c1cc(NS(=O)(=O)c2ccc(OCC34CC5CC(CC(C5)C3)C4)c3ccccc23)ccc1F | 4.61 | 14.8 |  |
| CCCCCCCCOc1ccc(S(=O)(=O)Nc2ccc(F)c(C(=O)O)c2)c2ccccc12 | 4.19 | 4.04 |  |
| O=C(O)c1cc(NS(=O)(=O)c2ccc(OCc3ccccc3)c3ccccc23)ccc1F |  | 3.15 |  |
| COc1c(-c2ccc(Cl)c(Cl)c2)cc(S(=O)(=O)Nc2ccc(F)c(C(=O)O)c2)c2ccccc12 |  | 4.38 |  |
| CCCCCOc1ccc(S(=O)(=O)Nc2ccc(F)c(C(=O)O)c2)c2ccccc12 | 8.32 | 2.99 |  |
| COc1ccc(S(=O)(=O)Nc2ccc(F)c(C(=O)O)c2)c2ccccc12 |  |  | Activity (RAW264.7 [3]): Non-Toxic; Activity (3T3-L1): Non-Toxic |
| COc1c(-c2ccncc2)cc(S(=O)(=O)Nc2ccc(F)c(C(=O)O)c2)c2ccccc12 |  | 3.54 |  |
| COc1c(-c2ccoc2)cc(S(=O)(=O)Nc2ccc(F)c(C(=O)O)c2)c2ccccc12 |  | 3.53 |  |
| O=C(O)c1cc(NS(=O)(=O)c2ccc(OCCCC3CCCCC3)c3ccccc23)ccc1F | 3.63 | 3.59 |  |
| CCCCCCCCCCOc1ccc(S(=O)(=O)Nc2ccc(F)c(C(=O)O)c2)c2ccccc12 | 4.48 | 4.73 |  |

The remaining compounds from weak to strong by IC50 [2], led by results:

| IC50 [1] [µM] | IC50 [2] [µM] | Compound | further results |
| --- | --- | --- | --- |
|  | 2.98 | COc1c(-c2ccc(F)c(F)c2)cc(S(=O)(=O)Nc2ccc(F)c(C(=O)O)c2)c2ccccc12 |  |
|  | 2.64 | CCOc1ccc(S(=O)(=O)Nc2ccc(F)c(C(=O)O)c2)c2ccccc12 |  |
| 4.17 | 2.43 | CCCCCCOc1ccc(S(=O)(=O)Nc2ccc(F)c(C(=O)O)c2)c2ccccc12 |  |
| 8.12 | 2.41 | O=C(O)c1cc(NS(=O)(=O)c2ccc(OCC3CCCCC3)c3ccccc23)ccc1F |  |
| 3.3 | 2.37 | O=C(O)c1cc(NS(=O)(=O)c2ccc(OC3CCCCCC3)c3ccccc23)ccc1F |  |
| 2.76 | 2.3 | CCCCCCCOc1ccc(S(=O)(=O)Nc2ccc(F)c(C(=O)O)c2)c2ccccc12 |  |
| 7.66 | 2.2 | O=C(O)c1cc(NS(=O)(=O)c2ccc(OC3CCCCC3)c3ccccc23)ccc1F |  |
| 4.85 | 1.97 | O=C(O)c1cc(NS(=O)(=O)c2ccc(OCCC3CCCCC3)c3ccccc23)ccc1F | Activity (RAW264.7 [3]): Non-Toxic; inhibition at 30 µM (RAW264.7 [4]): 24%; IC50 [5]: 55.6 µM; Activity (3T3-L1): Non-Toxic; inhibition at 30 µM (RAW264.7 [6]): 29% |
|  | 1.89 | COc1c(-c2cccc(O)c2)cc(S(=O)(=O)Nc2ccc(F)c(C(=O)O)c2)c2ccccc12 |  |
| 10 | 1.74 | COc1c(-c2ccc(F)cc2)cc(S(=O)(=O)Nc2ccc(F)c(C(=O)O)c2)c2ccccc12 |  |
|  | 1.7 | COc1c(-c2cccc(N)c2)cc(S(=O)(=O)Nc2ccc(F)c(C(=O)O)c2)c2ccccc12 |  |
|  | 1.58 | COc1c(-c2ccc(F)c(Cl)c2)cc(S(=O)(=O)Nc2ccc(F)c(C(=O)O)c2)c2ccccc12 | Activity (RAW264.7 [3]): Non-Toxic; inhibition at 30 µM (RAW264.7 [4]): 23%; IC50 [5]: 46.8 µM; Activity (3T3-L1): Non-Toxic; inhibition at 30 µM (RAW264.7 [6]): 32% |
|  | 1.19 | COc1c(-c2ccc(O)cc2)cc(S(=O)(=O)Nc2ccc(F)c(C(=O)O)c2)c2ccccc12 |  |
|  | 1.19 | COc1c(-c2ccccc2)cc(S(=O)(=O)Nc2ccc(F)c(C(=O)O)c2)c2ccccc12 |  |
